Reference: US6498168B2, “Muscarinic antagonists” (Schering Corporation, priority 1995, dated 2002)
Where a name gives a salt, the structure may show the parent alone. Read-outs that look alike come from different tables or passages of the source.

Tests used:
[1] = target: T1, cloned human m2 muscarinic receptor (Homo sapiens, UniProt P08172); experiment: Muscarinic binding activity, 3H-QNB, m2
T1 sequence (P08172 1-466): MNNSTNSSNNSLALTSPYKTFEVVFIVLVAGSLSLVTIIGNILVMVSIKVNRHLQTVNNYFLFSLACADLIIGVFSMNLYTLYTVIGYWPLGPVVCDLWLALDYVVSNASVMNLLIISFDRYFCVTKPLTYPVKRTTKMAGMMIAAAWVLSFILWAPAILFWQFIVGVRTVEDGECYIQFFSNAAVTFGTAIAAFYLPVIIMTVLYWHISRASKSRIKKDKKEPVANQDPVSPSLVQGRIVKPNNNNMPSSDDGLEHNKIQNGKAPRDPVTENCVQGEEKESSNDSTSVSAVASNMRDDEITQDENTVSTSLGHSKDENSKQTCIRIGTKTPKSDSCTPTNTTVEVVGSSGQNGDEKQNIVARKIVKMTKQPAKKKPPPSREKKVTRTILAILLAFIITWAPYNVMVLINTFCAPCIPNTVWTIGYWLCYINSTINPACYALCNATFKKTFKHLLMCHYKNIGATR
Experimental: (§1) The compound of interest is tested for its ability to inhibit binding to the cloned human m1, m2, m3, and m4 muscarinic receptor subtypes. The sources of receptors in these studies were membranes from stably transfected CHO cell lines which were expressing each of the receptor subtypes. Following growth, the cells were pelleted and subsequently homogenized using a Polytron in 50 volumes cold 10 mM Na/K phosphate buffer, pH 7.4 (Buffer B). The homgenates were centrifuged at 40,000×g for 20 minutes at 4° C. The resulting supernatants were discarded and the pellets were resuspended in Buffer B at a final concentration of 20 mg wet tissue/ml. These membranes were stored at −80° C. until utilized in the binding assays described below.
(§2) Binding to the cloned human muscarinic receptors was performed using ^3H-quinuclidinyl benzilate (QNB) (Watson et al., 1986). Briefly, membranes (approximately 8, 20, and 14 μg of protein assay for the m1, m2, and m4 containing membranes, respectively) were incubated with ^3H-QNB (final concentration of 100-200 pM) and increasing concentrations of unlabeled drug in a final volume of 2 ml at 25° C. for 90 minutes. Non-specific binding was assayed in the presence of 1 μM atropine. The incubations were terminated by vacuum filtration over GF/B glass fiber filters using a Skatron filtration apparatus and the filters were washed with cold 10 mM Na/K phosphate butter, pH 7.4. Scintillation cocktail was added to the filters and the vials were incubated overnight. The bound radioligand was quantified in a liquid scintillation counter (50% efficiency). The resulting data were analyzed for IC50 values (i.e. the concentration of compound required to inhibit binding by 50%) using the EBDA computer program (McPherson, 1985). Affinity values (Ki) were then determined using the following formula (Cheng and Prusoff, 1973); [formula]
(§3) To determine the degree of selectivity of a compound for binding the m2 receptor, the Ki value for m1 receptors was divided by the Ki value for m2 receptors. A higher ratio indicates a greater selectivity for binding the m2 muscarinic receptor.

[2] = target: T2, cloned human m1 muscarinic receptor (Homo sapiens, UniProt P11229); experiment: Muscarinic binding activity, 3H-QNB, m1
T2 sequence (P11229 1-460): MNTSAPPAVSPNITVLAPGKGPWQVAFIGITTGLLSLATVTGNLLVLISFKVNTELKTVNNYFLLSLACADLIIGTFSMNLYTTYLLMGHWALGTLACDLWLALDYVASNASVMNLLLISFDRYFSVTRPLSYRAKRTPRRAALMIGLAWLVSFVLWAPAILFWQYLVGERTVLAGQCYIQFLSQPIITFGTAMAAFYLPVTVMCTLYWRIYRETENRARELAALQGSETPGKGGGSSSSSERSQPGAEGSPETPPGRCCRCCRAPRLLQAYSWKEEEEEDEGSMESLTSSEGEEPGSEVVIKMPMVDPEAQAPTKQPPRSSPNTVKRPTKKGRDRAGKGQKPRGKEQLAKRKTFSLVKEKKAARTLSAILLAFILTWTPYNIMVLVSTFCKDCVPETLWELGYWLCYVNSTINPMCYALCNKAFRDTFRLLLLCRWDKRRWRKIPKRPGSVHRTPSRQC
Experimental: as §1, §2, §3

[3] = target: T3, cloned human m4 muscarinic receptor (Homo sapiens, UniProt P08173); experiment: Muscarinic binding activity, 3H-QNB, m4
T3 sequence (P08173 1-479): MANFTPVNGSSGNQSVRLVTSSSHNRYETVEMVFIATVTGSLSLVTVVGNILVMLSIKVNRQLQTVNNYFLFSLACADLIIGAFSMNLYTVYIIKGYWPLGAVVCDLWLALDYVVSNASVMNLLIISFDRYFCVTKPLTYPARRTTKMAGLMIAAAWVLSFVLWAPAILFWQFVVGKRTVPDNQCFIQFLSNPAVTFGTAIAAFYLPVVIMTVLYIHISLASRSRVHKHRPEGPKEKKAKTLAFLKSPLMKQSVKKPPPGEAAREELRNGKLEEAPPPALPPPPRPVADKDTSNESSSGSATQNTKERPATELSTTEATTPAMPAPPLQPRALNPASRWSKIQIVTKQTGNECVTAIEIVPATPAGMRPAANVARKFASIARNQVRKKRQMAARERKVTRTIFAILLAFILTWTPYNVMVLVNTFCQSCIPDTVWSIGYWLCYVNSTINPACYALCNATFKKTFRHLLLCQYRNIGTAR
Experimental: as §1, §2

[4] = tested on: ACh release from striatum; format: in vivo, rat; details: for Peak ACh release as % increase over Baseline: striatum of conscious rat
Experimental: Surgery: For these studies, male Sprague-Dawley Rats (250-350 g) were anesthetized with sodium pentobarbital (54 mg/kg, ip) and placed on a Kopf sterotaxic apparatus. The skull was exposed and drilled through to the dura at a point 0.2 mm anterior and 3.0 mm lateral to the bregma. At these coordinates, a guide cannula was positioned at the outer edge of the dura through the drilled opening, lowered perpendicularly to a depth of 2.5 mm, and permanently secured with dental cement to bone screws. Following the surgery, rats were given ampicillin (40 mg/kg, ip) and individually housed in modified cages. A recovery period of approximately 3 to 7 days was allowed before the microdialysis procedure was undertaken.
Microdialysis: All of the equipment and instrumentation used to conduct in vivo microdialysis was obtained from Bioanalytical Systems, Inc. (BAS). The microdialysis procedure involved the insertion through the guide cannula of a thin, needle-like perfusable probe (CMA/12,3 mm×0.5 mm) to a depth of 3 mm in striatum beyond the end of the guide. The probe was connected beforehand with tubing to a microinjection pump (CMA-/100). Rats were collared, tethered, and, following probe insertion, were placed in a large, clear, plexiglass bowl with litter material and access to food and water. The probe was perfused at 2 μl/min with Ringer's buffer (NaCl 147 mM; KCl 3.0 mM; CaCl2 1.2 mM; MgCl2 1.0 mM) containing 5.5 mM glucose, 0.2 mM L-ascorbate, and 1 μM neostigmine bromide at pH 7.4). To achieve stable baseline readings, microdialysis was allowed to proceed for 90 minutes prior to the collection of fractions. Fractions (20 μl) were obtained at 10 minute intervals over a 3 hour period using a refrigerated collector (CMA170 or 200). Four to five baseline fractions were collected, following which the drug or combination of drugs to be tested was administered to the animal. Upon completion of the collection, each rat was autopsied to determine accuracy of probe placement.
Acetylcholine (ACh) analysis: The concentration of ACh in collected samples of microdialysate was determined using HPLC/electrochemical detection. Samples were auto-injected (Waters 712 Refrigerated Sample Processor) onto a polymeric analytical HPLC column (BAS, MF-6150) and eluted with 50 mM Na2HPO4, pH 8.5. To prevent bacterial growth, Kathon CG reagent (0.005%) (BAS) was included in the mobile phase. Eluent from the analytical column, containing separated ACh and choline, was then immediately passed through an immobilized enzyme reactor cartridge (BAS, MF-6151) coupled to the column outlet. The reactor contained both acetylcholinesterase and choline oxidase covalently bound to a polymeric backbone. […] Data acquisition was carried out using an IBM Model 70 computer equipped with a microchannel IEEE board. Integration and quantification of peaks were accomplished using “Maxima” chromatography software (Waters Corporation). Total run time per sample was 11 minutes at a flow rate of 1 ml/min. Retention times for acetylcholine and choline were 6.5 and 7.8 minutes, respectively. To monitor and correct for possible changes in detector sensitivity during chromatography, ACh standards were included at the beginning, middle and end of each sample queue.
Increases in ACh levels are consistent with presynaptic m2 receptor antagonism.

ACh release from cortex = experiment: Microdialysis, ACh release from cortex of conscious rat; format: in vivo
[5] = range given for the named group of compounds, read-out: Ki, nM, m2
[6] = range given for the named group of compounds, read-out: Ki, nM, m1
[7] = range given for the named group of compounds, read-out: Ki, nM, m4

## COc1ccc(S(=O)(=O)c2ccc([C@@H](C)N3CCN(C4CCCCC4)C[C@H]3C)cc2)cc1 [Compound 667]
[1]; [5]
  Ki: 0.03 to 0.48 nM
other
  melting point: 241 to 242 °C

## COC(=O)C(c1ccc(S(=O)(=O)c2ccc(OC)cc2)cc1)N1CCN(C2CCCCC2)CC1 (centres unmarked) [Compound 214]
[1]; [5]
  Ki: 0.05 to 16.6 nM
[2]; [6]
  Ki: 2.1 to 224 nM
[3]; [7]
  Ki: 0.33 to 36 nM

## Nc1c2c(nc3ccccc13)CCCC2 [Tacrine, reference compound]
[4]; Tacrine 3 mg/kg i.p. (FIG. 3)
  Peak ACh release as % increase over Baseline: 30 (FIG. 3) %

## COc1ccc(S(=O)(=O)c2ccc([C@H](C)N3CCN(C4CCCCC4)C[C@H]3C)cc2)cc1 [Compound 656]
[1]; [5]
  Ki: 0.03 to 0.48 nM
other
  melting point: 227 to 230 °C

## C=C(c1ccc(Sc2ccc(OC)cc2)cc1)C1CCN(C2CCCCC2)CC1 (as salt: hydrochloride) [Compound 302]
other
  melting point: 227 to 230 °C

## C=C(c1ccc(Sc2ccc(OC)cc2)cc1)C1CCN(C2CCCCC2)CC1 [Compound 302]
[1]; [5]
  Ki: 0.05 to 16.6 nM
[2]; [6]
  Ki: 2.1 to 224 nM
[3]; [7]
  Ki: 0.33 to 36 nM

## COc1ccc([S+]([O-])c2ccc(C(C#N)N3CCN(C4CCCCC4)CC3)cc2)cc1 (single isomer, unassigned) [Compound 169]
[4]; oral administration, brain region not stated
  increase in ACh release: significant increase
[4]; 0.1 mg/kg i.p. (FIG. 2)
  Peak ACh release as % increase over Baseline: 10%
[4]; 1 mg/kg i.p. (FIG. 2)
  Peak ACh release as % increase over Baseline: 30%
[4]; 3 mg/kg i.p. (FIG. 2)
  Peak ACh release as % increase over Baseline: 125%
[4]; 10 mg/kg i.p. (FIG. 2)
  Peak ACh release as % increase over Baseline: 150%
[4]; 30 mg/kg i.p. (FIG. 2)
  Peak ACh release as % increase over Baseline: 270%
[4]; Compound 169 1 mg/kg i.p. (FIG. 4)
  Peak ACh release as % increase over Baseline: 40 (FIG. 4) %
ACh release from cortex; 1 mg/kg i.p. (FIG. 1)
  Peak ACh release as % increase over Baseline: 75%
ACh release from cortex; 10 mg/kg i.p. (FIG. 1)
  Peak ACh release as % increase over Baseline: 400%
ACh release from cortex; 30 mg/kg i.p. (FIG. 1)
  Peak ACh release as % increase over Baseline: 1500%

## CC1CN(C2CCCCC2)CCN1C(C)c1ccc(Oc2ncccn2)cc1 (centres unmarked) [Compound 269]
[1]; [5]
  Ki: 0.05 to 16.6 nM
[2]; [6]
  Ki: 2.1 to 224 nM
[3]; [7]
  Ki: 0.33 to 36 nM

## C=C(c1ccc(S(=O)(=O)c2ccc(OC)cc2)cc1)C1CCN(C2CCN(C(=O)OCC)CC2)CC1 [Compound 760]
[1]; [5]
  Ki: 0.03 to 0.48 nM

## COC(=O)C(C)(c1ccc([S+]([O-])c2ccc(OC)cc2)cc1)N1CCN(C2CCCCC2)CC1 (centres unmarked) [Compound 296]
[1]; [5]
  Ki: 0.05 to 16.6 nM
[2]; [6]
  Ki: 2.1 to 224 nM
[3]; [7]
  Ki: 0.33 to 36 nM

## C=C(c1ccc([S+]([O-])c2ccc(OC)cc2)cc1)C1CCN(C2CCCCC2)CC1 (centres unmarked) [Compound 304]
[1]; [5]
  Ki: 0.05 to 16.6 nM
[2]; [6]
  Ki: 2.1 to 224 nM
[3]; [7]
  Ki: 0.33 to 36 nM

## COc1ccc([S+]([O-])c2ccc(C(=O)C3CCN(C4CCCCC4)CC3)cc2)cc1 (centres unmarked) [Compound 305]
[1]; [5]
  Ki: 0.05 to 16.6 nM
[2]; [6]
  Ki: 2.1 to 224 nM
other
  melting point: 125 °C
[3]; [7]
  Ki: 0.33 to 36 nM

## C=C(c1ccc([S+]([O-])c2ccc(OC)cc2)cc1)C1CCN(C2CCCCC2)CC1 (single isomer, unassigned) [Compound 301]
other
  melting point: 141 to 142 °C

## C=C(c1ccc([S+]([O-])c2ccc(OC)cc2)cc1)C1CCN(C2CCCCC2)CC1 (single isomer, unassigned) [Compound 300]
[1]; [5]
  Ki: 0.05 to 16.6 nM
[2]; [6]
  Ki: 2.1 to 224 nM
[3]; [7]
  Ki: 0.33 to 36 nM

## c1cnc(Oc2ccc(C(C3CCCCC3)N3CCN(C4CCCCC4)CC3)cc2)nc1 (single isomer, unassigned) [227(−)]
[1]; [5]
  Ki: 0.05 to 16.6 nM
[2]; [6]
  Ki: 2.1 to 224 nM
[3]; [7]
  Ki: 0.33 to 36 nM

## COc1ccc([S+]([O-])c2ccc(C(C)(C#N)N3CCN(C4CCCCC4)CC3)cc2)cc1 (centres unmarked) [Compound 289]
[1]; [5]
  Ki: 0.05 to 16.6 nM
[2]; [6]
  Ki: 2.1 to 224 nM
[3]; [7]
  Ki: 0.33 to 36 nM

## CC(C)C(c1ccc(Oc2ncccn2)cc1)N1CCN(C2CCCCC2)CC1 (centres unmarked) [Compound 232]
[1]
  Ki: 0.05 to 16.6 nM
[2]
  Ki: 2.1 to 224 nM
[3]
  Ki: 0.33 to 36 nM

## O=C(O)/C=C\C(=O)O.c1ccc(Oc2ccc(C3(N4CCN(C5CCCCC5)CC4)CCSCC3)cc2)cc1
other
  melting point: 137 to 139 °C
